Molecules are shown by their SMILES.

One experiment has as its system Human IL2 promoter. Nature of the experiment: Human IL2 promoter reporter gene assay (RGA) in Jurkat cells. Conditions: Jurkat clone K22 290_H23, anti-CD28 mAb + PMA, 5.5 h. The format is cell-based. As for the experimental part: Human IL2 Promoter Reporter Gene Assay (RGA) in Jurkat Cells
The transfected Jurkat clone K22 290_H23 was propagated in RPMI 1640 supplemented with 10% heat inactivated fetal calf serum, 50 μM 2-mercaptoethanol and 1 mg/ml Geneticin. The cell concentration should not exceed 1×10e6/ml during culturing. The cells should not exceed passage 30. Prior to the assay the cells were washed and prepared to the concentration of 2×10e6 cells/ml.
Compound dilutions were made as 2×-concentrated solutions then diluted ½ by addition to cells. Two hundred and fifty μl of compound dilution and 250 μl of cells were mixed together in wells of a 96-deep well plate. Cells/compounds premix were incubated 30 min at 37° C. and 5% CO2 directly in the deep well plate.
After pre-incubation of cells with compounds, cells were stimulated with anti-CD28 mAb (clone 15E8) at 3 μg/ml+PMA at 1 μg/ml. Both co-stimulants were diluted in culture medium at a 10×-concentrated solution. 10 μl of co-stimulants were pipetted into the white 96-well plates and 100 μl of cell/compound mix was immediately added in duplicates. The cells were stimulated for 5.5 h at 37° C. and 5% CO2.
After cell stimulation, 50 μl of BriteLitePlus reagent (Perkin Elmer) was added to each well and the bioluminescence was measured with a Wallac EnVision reader (Perkin Elmer).

Experiment [1] addresses T1, C-domain of MALT1 (amino acids 329-824) (Homo sapiens, UniProt Q9UDY8).
T1 sequence (Q9UDY8 329-824): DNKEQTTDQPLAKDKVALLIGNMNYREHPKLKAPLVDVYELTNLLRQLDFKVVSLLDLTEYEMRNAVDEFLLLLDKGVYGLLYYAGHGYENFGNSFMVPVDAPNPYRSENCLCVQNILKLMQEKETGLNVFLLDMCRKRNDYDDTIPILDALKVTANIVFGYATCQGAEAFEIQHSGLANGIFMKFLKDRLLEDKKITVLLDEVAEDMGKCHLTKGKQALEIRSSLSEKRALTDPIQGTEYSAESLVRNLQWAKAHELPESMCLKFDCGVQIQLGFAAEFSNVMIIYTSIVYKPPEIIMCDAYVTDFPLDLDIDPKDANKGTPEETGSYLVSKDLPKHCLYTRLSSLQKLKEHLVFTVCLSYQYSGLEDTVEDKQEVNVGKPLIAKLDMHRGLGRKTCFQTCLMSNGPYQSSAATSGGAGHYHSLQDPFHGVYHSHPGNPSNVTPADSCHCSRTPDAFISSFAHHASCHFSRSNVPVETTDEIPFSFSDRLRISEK
As to the kind of experiment: MALT1 Biochemical Assay - Version 1 (fluorescence lifetime).
Procedure: The readout parameter is the increase of fluorescence lifetime over time, proportional to enzyme activity.
The assay employs a short peptide substrate labeled with the single fluorophore PT14 as a fluorescence lifetime probe sensitive to the cleavage state of the substrate (PT14: 6-(9-oxo-9H-acridin-10-yl)-hexanoate, AssayMetrics, UK). […] Test compounds were dissolved in 100% (v/v) DMSO or a mixture containing 90% (v/v) DMSO and 10% (v/v) H2O at a stock concentration of 100 mM. Serial dilutions of test compounds were prepared using either 100% (v/v) DMSO or a mixture containing 90% (v/v) DMSO and 10% (v/v) H2O.
where y is the %-inhibition at the inhibitor concentration, x. A1 is the lowest inhibition value, and A2 the maximum inhibition value. The exponent, p, is the Hill coefficient.

In the case of `CO[C@@H](C)c1c(NC(=O)Nc2cc(C(C)O)nc(C(F)(F)F)c2)cnc2cc(F)nn12` (stereo partly drawn) [Example 17, 1-(2-fluoro-7-((S)-1-methoxyethyl)pyrazolo [1,5-a]pyrimidin-6-yl)-3-(2-(1-hydroxyethyl)-6-(trifluoromethyl)pyridin-4-yl)urea], the IC50 in the experiment on Human IL2 promoter was determined as 87 nM; in experiment [1], 20 nM. For the compound `CO[C@@H](C)c1c(NC(=O)Nc2cc(Cl)nc(C(=O)N(C)C)c2)cnc2cc(Cl)nn12` [Example 28, (S)-6-chloro-4-(3-(2-chloro-7-(1-methoxyethyl)pyrazolo [1,5-a]pyrimidin-6-yl)ureido)-N, N-dimethylpicolinamide], the results for the IC50 (with Human IL2 promoter; in experiment [1]) were 45 nM and 13 nM, respectively. `CO[C@@H](C)c1c(NC(=O)Nc2cnc(-n3nccn3)c(C#N)c2)cnc2cc(F)nn12` [Example 18, (S)-1-(5-cyano-6-(2H-1,2,3-triazol-2-yl)pyridin-3-yl)-3-(2-fluoro-7-(1-methoxyethyl)pyrazolo [1,5-a]pyrimidin-6-yl)urea]: the values for the IC50 (in the experiment with Human IL2 promoter; in experiment [1]) were 19 nM and 4 nM, respectively. For the compound `COCCO[C@@H](C)c1c(NC(=O)Nc2cnc(-n3nccn3)c(C(F)(F)F)c2)cnc2cc(Cl)nn12` [Example 7, (S)-1-(6-(2H-1,2,3-triazol-2-yl)-5-(trifluoromethyl)pyridin-3-yl)-3-(2-chloro-7-(1-(2-methoxyethoxy)ethyl)pyrazolo[1,5-a]pyrimidin-6-yl)urea], the IC50 came out at 27 nM with Human IL2 promoter and 7 nM in experiment [1]. Take `CO[C@H](c1c(NC(=O)Nc2cnc(-n3nccn3)c(C#N)c2)cnc2cc(C)nn12)C(C)C` [Example 15, (S)-1-(5-cyano-6-(2H-1,2,3-triazol-2-yl)pyridin-3-yl)-3-(7-(1-methoxy-2-methylpropyl)-2-methylpyrazolo[1,5-a]pyrimidin-6-yl)urea]: the IC50 with Human IL2 promoter worked out at 12 nM; in experiment [1], 9 nM.

On to `COCC1(c2c(NC(=O)Nc3cncc(C#N)c3)cnc3cc(Cl)nn23)CC1` [Example 9, 1-(2-chloro-7-(1-(methoxymethyl)cyclopropyl)pyrazolo[1,5-a]pyrimidin-6-yl)-3-(5-cyanopyridin-3-yl)urea], for which the figures for the IC50 (in the experiment on Human IL2 promoter; in experiment [1]) were 93 nM and 29 nM, respectively. On to `CO[C@@H](C)c1c(NC(=O)Nc2cnc(C(=O)N(C)C)c(Cl)c2)cnc2cc(Cl)nn12` [Example 31, (S)-3-chloro-5-(3-(2-chloro-7-(1-methoxyethyl)pyrazolo [1,5-a]pyrimidin-6-yl)ureido)-N,N-dimethylpicolinamide], for which the values for the IC50 (in the experiment with Human IL2 promoter; in experiment [1]) were 35 nM and 12 nM, respectively.

For the compound `CO[C@@H](C)c1c(NC(=O)Nc2cncc(C#N)c2)cnc2cc(F)nn12` [Example 12, (S)-1-(5-cyanopyridin-3-yl)-3-(2-fluoro-7-(1-methoxyethyl)pyrazolo[1,5-a]pyrimidin-6-yl)urea], the IC50 is 73 nM in the experiment on Human IL2 promoter and 31 nM in experiment [1]. Taken in the same sequence, the figures for `COc1ncc(NC(=O)Nc2cnc3cc(Cl)nn3c2[C@H](C)O[C@H]2CCN(C(C)=O)C2)cc1C#N` [Example 26, 1-(7-((S)-1-(((S)-1-acetylpyrrolidin-3-yl)oxy)ethyl)-2-chloropyrazolo[1,5-a]pyrimidin-6-yl)-3-(5-cyano-6-methoxypyridin-3-yl)urea] were 113 nM and 22 nM. With `COCC(OC)c1c(NC(=O)Nc2cnc(-n3nccn3)c(C#N)c2)cnc2cc(Cl)nn12` (stereo not shown) [Example 19, 1-(2-chloro-7-(1,2-dimethoxyethyl)pyrazolo [1,5-a]pyrimidin-6-yl)-3-(5-cyano-6-(2H-1,2,3-triazol-2-yl)pyridin-3-yl)urea], the IC50 in the experiment on Human IL2 promoter was determined as 56 nM; in experiment [1], 9 nM. With `CO[C@@H](C)c1c(NC(=O)Nc2cnc(-n3nccn3)c(C#N)c2)cnc2cc(Cl)nn12` [Example 11, (S)-1-(2-chloro-7-(1-methoxyethyl)pyrazolo[1,5-a]pyrimidin-6-yl)-3-(5-cyano-6-(2H-1,2,3-triazol-2-yl)pyridin-3-yl)urea], the results for the IC50 (in the experiment on Human IL2 promoter; in experiment [1]) were 12 nM and 2 nM, respectively. For the compound `Cc1cc2ncc(NC(=O)Nc3cncc(C#N)c3)c([C@H](C)O)n2n1` [Example 39, (S)-1-(5-cyanopyridin-3-yl)-3-(7-(1-hydroxyethyl)-2-methylpyrazolo [1,5-a]pyrimidin-6-yl)urea], the 50% inhibitory concentration (IC50) with Human IL2 promoter came out at 604 nM; in experiment [1], 72 nM. As to `CC(C)c1c(NC(=O)Nc2cnc(-n3nccn3)c(Cl)c2)cnc2cc(Cl)nn12` [Example 4, 1-(5-chloro-6-(2H-1,2,3-triazol-2-yl)pyridin-3-yl)-3-(2-chloro-7-isopropylpyrazolo[1,5-a]pyrimidin-6-yl)urea], the IC50 in the experiment on Human IL2 promoter was 103 nM. As to `CO[C@@H](C)[C@H](OC)c1c(NC(=O)Nc2cnc(-n3nccn3)c(C#N)c2)cnc2cc(Cl)nn12` [Example 25, 1-(2-chloro-7-((1R, 2S)-1,2-dimethoxypropyl)pyrazolo[1,5-a]pyrimidin-6-yl)-3-(5-cyano-6-(2H-1,2,3-triazol-2-yl)pyridin-3-yl)urea], the IC50 in the experiment with Human IL2 promoter was determined as 21 nM; in experiment [1], 4 nM. In the same order, the values of `CO[C@@H](C)c1c(NC(=O)Nc2cc(Cl)cnc2OC[C@H](C)N)cnc2cc(Cl)nn12` [Example 41, 1-(2-((S)-2-aminopropoxy)-5-chloropyridin-3-yl)-3-(2-chloro-7-((S)-1-methoxyethyl)pvrazolo[1,5-a]pyrimidin-6-yl)urea] are 50 nM and 21 nM. In the case of `C[C@H](N)c1c(NC(=O)Nc2cnc(-n3nccn3)c(Cl)c2)cnc2cc(Cl)nn12` [Example 38, (S)-1-(7-(1-aminoethyl)-2-chloropyrazolo[1,5-a]pyrimidin-6-yl)-3-(5-chloro-6-(2H-1,2,3-triazol-2-yl)pyridin-3-yl)urea], the results for the IC50 (in the experiment with Human IL2 promoter; in experiment [1]) were 86 nM and 24 nM, respectively. Regarding `CO[C@H](c1c(NC(=O)Nc2cnc(-n3nccn3)c(C(F)(F)F)c2)cnc2cc(Cl)nn12)C(C)C` [Example 8, (S)-1-(6-(2H-1,2,3-triazol-2-yl)-5-(trifluoromethyl)pyridin-3-yl)-3-(2-chloro-7-(1-methoxy-2-methylpropyl)pyrazolo [1,5-a]pyrimidin-6-yl)urea], the IC50 in the experiment with Human IL2 promoter worked out at 38 nM; in experiment [1] it was 2 nM. For the compound `CO[C@@H](C)c1c(NC(=O)Nc2ccnc(C(F)(F)F)c2)cnc2cc(Cl)nn12` [Example 3, (S)-1-(2-chloro-7-(1-methoxyethyl)pyrazolo[1,5-a]pyrimidin-6-yl)-3-(2-(trifluoromethyl)pyridin-4-yl)urea], the IC50 with Human IL2 promoter worked out at 36 nM. Regarding `COc1ncc(NC(=O)Nc2cnc3cc(Cl)nn3c2[C@@H](OC)[C@H](C)OC)cc1C#N` [Example 36, 1-(2-chloro-7-((1R, 2S)-1,2-dimethoxypropyl)pyrazolo[1,5-a]pyrimidin-6-yl)-3-(5-cyano-6-methoxypyridin-3-yl)urea], the IC50 in the experiment on Human IL2 promoter was 35 nM; in experiment [1], 3 nM. On to `CNC(=O)c1ncc(NC(=O)Nc2cnc3cc(Cl)nn3c2[C@H](C)OC)cc1Cl` [Example 34, (S)-3-chloro-5-(3-(2-chloro-7-(1-methoxyethyl)pyrazolo [1,5-a]pyrimidin-6-yl)ureido)-N-methylpicolinamide], for which the IC50 with Human IL2 promoter worked out at 28 nM; in experiment [1], 7 nM.

Regarding `CO[C@@H](C)c1c(NC(=O)Nc2cnc(C(=O)N3CCCC3)c(Cl)c2)cnc2cc(Cl)nn12` [Example 33, (S)-1-(5-chloro-6-(pyrrolidine-1-carbonyl)pyridin-3-yl)-3-(2-chloro-7-(1-methoxyethyl)pyrazolo [1,5-a]pyrimidin-6-yl)urea], the figures for the IC50 (in the experiment on Human IL2 promoter; in experiment [1]) were 44 nM and 11 nM, respectively.

On to `COc1ncc(NC(=O)Nc2cnc3cc(C)nn3c2[C@@H](OC)C(C)C)cc1C#N` [Example 22, (S)-1-(5-cyano-6-methoxypyridin-3-yl)-3-(7-(1-methoxy-2-methylpropyl)-2-methylpyrazolo[1,5-a]pyrimidin-6-yl)urea], for which the concentration for half-maximal inhibition (IC50) in the experiment with Human IL2 promoter is 25 nM; in experiment [1], 7 nM. On to `CO[C@@H](C)[C@H](OC)c1c(NC(=O)Nc2cnc(-n3nccn3)c(Cl)c2)cnc2cc(Cl)nn12` [Example 10, 1-(5-chloro-6-(2H-1,2,3-triazol-2-yl)pyridin-3-yl)-3-(2-chloro-7-((1R, 2S)-1,2-dimethoxypropyl)pyrazolo[1,5-a]pyrimidin-6-yl) urea], for which, in the experiment on Human IL2 promoter, the IC50 stood at 22 nM.
